Tests used:
Type in all cases: biochemical
BTK = BTK (Homo sapiens (Human), UniProt Q06187); assay: Z'-LYTE kinase inhibition assay, BTK; details: read-out: % inhibition BTK; heading: % inhibition BTK; compound at 0.041 μM
Method: (§1) Inhibitory activities of compounds against BTK, EGFR and EGFR mutants (EGFR L858R, EGFR T790M, EGFR L858R/T790M), FGFR1, FGFR2, JAK2, JAK3 and KDR were measured by Invitrogen using Z′-LYTE® Method as briefly described in the following.
(§2) Test Compounds are screened in 1% DMSO (final) in the well. For 10 point titrations, 3-fold serial dilutions are conducted from the starting concentration. All ATP Solutions are diluted to a 4× working concentration in Kinase Buffer (50 mM HEPES pH 7.5, 0.01% BRIJ-35, 10 mM MgCl2, 1 mM EGTA). Peptide/Kinase Mixtures are diluted to a 2× working concentration in the appropriate Kinase Buffers as described below.
(v) Peptide/Kinase Mixtures for Measurement of BTK:
The 2×BTK/Tyr 01 mixture is prepared in 50 mM HEPES pH 7.5, 0.01% BRIJ-35, 10 mM MgCl2, 1 mM EGTA.
The mixture is then incubated for another 60-minute at room temperature for development reaction. Finally fluorescence is read by plate reader.
To determine IC50 of a compound against EGFR, EGFR mutant and other kinases, a series of concentrations of the compound were tested for the inhibition. […] The scale utilized in Table 4 is as follows: +++ less than 100 nM, ++ 100-500 nM and + greater than 500 nM.

EGFR (ErbB1) T790M L858R = EGFR (ErbB1) T790M L858R (Homo sapiens (Human), UniProt P00533, L858R/T790M); assay: Z'-LYTE kinase inhibition assay, EGFR L858R/T790M; details: for inhibition at 0.0137 µM: read-out: % inhibition EGFR L858R/T790M (Compound at 0.0137 μM)
Method: Inhibitory activities of compounds against BTK, EGFR and EGFR mutants (EGFR L858R, EGFR T790M, EGFR L858R/T790M), FGFR1, FGFR2, JAK2, JAK3 and KDR were measured by Invitrogen using Z'-LYTE® Method as briefly described in the following. Test Compounds are screened in 1% DMSO (final) in the well. For 10 point titrations, 3-fold serial dilutions are conducted from the starting concentration. All ATP Solutions are diluted to a 4× working concentration in Kinase Buffer (50 mM HEPES pH 7.5, 0.01% BRIJ-35, 10 mM MgCl2, 1 mM EGTA). Peptide/Kinase Mixtures are diluted to a 2× working concentration in the appropriate Kinase Buffers as described below. (iv) Peptide/Kinase Mixtures for Measurement of EGFR (ErbB1) T790M L858R: The 2×EGFR (ErbB1) […] mixture is prepared in 50 mM HEPES pH 6.5, 0.01% BRIJ-35, 10 mM MgCl2, 1 mM EGTA, 0.02% NaN3. […] After the 1 hour Kinase Reaction incubation, 5 μL of a 1:64 dilution of Development Reagent B is added. Reaction starts by 30-second shaking of mixture consisting of 2.5 μL 4× test compound, 5 μL 2× kinase reaction mixture and 2.5 μL 4×ATP Solution on Bar-coded Corning, low volume NBS, black 384-well plate (Corning Cat. #3676). Then the mixture is incubated for 60-minute at room temperature for the kinase reaction, followed by addition of 5 μL of a 1:1024 dilution of development reagent A and 30-second plate shake. The mixture is then incubated for another 60-minute at room temperature for development reaction. Finally fluorescence is read by plate reader. To determine IC50 of a compound against EGFR, EGFR mutant and other kinases, a series of concentrations of the compound were tested for the inhibition.

JAK2 = JAK2 (Homo sapiens (Human), UniProt O60674); assay: Z'-LYTE kinase inhibition assay, JAK2; details: read-out: % inhibition JAK2; heading: % inhibition JAK2; compound at 0.041 μM
Method: as §1, §2
(v) Peptide/Kinase Mixtures for Measurement of JAK2:
The 2×JAK2/Tyr 06 mixture is prepared in 50 mM HEPES pH 7.5, 0.01% BRIJ-35, 10 mM MgCl2, 1 mM EGTA. The final 10 μL Kinase Reaction consists of 0.06-0.81 ng JAK2 and 2 μM Tyr 06 in 50 mM HEPES pH 7.5, 0.01% BRIJ-35, 10 mM MgCl2, 1 mM EGTA. After the 1 hour Kinase Reaction incubation, 5 μL of a 1:64 dilution of Development Reagent A is added.
Reaction starts by 30-second shaking of mixture consisting of 2.5 μL 4× test compound, 5 μL 2× kinase reaction mixture and 2.5 μL 4×ATP Solution on Bar-coded Corning, low volume NBS, black 384-well plate (Corning Cat. #3676). Then the mixture is incubated for 60-minute at room temperature for the kinase reaction, followed by addition of 5 μL of a 1:1024 dilution of development reagent A and 30-second plate shake. The mixture is then incubated for another 60-minute at room temperature for development reaction. Finally fluorescence is read by plate reader.

Chain of EGFR (ErbB1) T790M L858R (P00533 25-1210 T790M/L858R): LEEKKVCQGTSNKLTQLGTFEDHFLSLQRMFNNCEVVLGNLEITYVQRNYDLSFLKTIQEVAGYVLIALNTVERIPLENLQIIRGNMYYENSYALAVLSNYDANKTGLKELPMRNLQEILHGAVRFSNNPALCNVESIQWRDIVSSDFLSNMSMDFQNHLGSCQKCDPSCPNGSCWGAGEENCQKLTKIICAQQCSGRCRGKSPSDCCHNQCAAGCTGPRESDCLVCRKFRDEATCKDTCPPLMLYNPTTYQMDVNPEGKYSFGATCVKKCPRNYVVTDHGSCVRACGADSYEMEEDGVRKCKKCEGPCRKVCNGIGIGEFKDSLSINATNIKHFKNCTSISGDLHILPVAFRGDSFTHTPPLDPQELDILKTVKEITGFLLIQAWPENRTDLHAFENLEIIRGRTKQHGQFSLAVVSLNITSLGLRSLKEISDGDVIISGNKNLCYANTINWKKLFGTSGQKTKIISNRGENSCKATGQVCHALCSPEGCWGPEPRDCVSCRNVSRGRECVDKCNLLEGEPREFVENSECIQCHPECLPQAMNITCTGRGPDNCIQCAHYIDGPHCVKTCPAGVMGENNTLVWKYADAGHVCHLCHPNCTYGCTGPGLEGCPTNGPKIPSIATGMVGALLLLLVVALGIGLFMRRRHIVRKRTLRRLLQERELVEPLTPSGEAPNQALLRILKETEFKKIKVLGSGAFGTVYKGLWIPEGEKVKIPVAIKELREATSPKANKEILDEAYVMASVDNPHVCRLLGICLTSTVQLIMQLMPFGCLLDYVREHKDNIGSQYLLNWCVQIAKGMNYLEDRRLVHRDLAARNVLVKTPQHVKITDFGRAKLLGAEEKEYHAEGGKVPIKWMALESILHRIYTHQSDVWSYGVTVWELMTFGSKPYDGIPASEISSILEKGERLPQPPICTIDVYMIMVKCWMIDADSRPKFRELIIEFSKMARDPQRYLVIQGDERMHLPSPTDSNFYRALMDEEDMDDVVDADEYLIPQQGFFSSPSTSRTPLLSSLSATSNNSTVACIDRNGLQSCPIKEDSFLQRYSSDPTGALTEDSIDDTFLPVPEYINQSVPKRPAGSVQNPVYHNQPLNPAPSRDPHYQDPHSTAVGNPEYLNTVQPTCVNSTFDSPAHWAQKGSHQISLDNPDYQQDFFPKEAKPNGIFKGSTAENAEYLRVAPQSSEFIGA
Chain of BTK (Q06187 whole entry): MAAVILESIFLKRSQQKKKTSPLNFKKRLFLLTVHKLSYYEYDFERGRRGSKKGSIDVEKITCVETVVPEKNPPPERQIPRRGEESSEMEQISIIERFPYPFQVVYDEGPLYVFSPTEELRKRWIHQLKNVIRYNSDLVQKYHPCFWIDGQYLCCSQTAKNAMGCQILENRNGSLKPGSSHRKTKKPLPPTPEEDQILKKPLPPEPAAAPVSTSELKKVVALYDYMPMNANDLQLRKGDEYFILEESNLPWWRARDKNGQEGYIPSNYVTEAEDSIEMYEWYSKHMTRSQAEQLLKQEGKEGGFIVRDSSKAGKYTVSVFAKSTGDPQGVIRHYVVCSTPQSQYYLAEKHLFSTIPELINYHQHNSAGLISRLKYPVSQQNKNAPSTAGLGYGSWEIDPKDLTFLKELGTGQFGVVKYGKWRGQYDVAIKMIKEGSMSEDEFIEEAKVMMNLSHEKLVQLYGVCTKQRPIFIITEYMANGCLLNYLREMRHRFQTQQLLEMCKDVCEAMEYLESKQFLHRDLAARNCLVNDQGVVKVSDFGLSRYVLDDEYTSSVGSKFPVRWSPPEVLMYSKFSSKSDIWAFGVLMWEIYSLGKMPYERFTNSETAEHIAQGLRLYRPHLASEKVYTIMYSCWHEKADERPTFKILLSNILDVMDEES
Chain of JAK2 (O60674 whole entry): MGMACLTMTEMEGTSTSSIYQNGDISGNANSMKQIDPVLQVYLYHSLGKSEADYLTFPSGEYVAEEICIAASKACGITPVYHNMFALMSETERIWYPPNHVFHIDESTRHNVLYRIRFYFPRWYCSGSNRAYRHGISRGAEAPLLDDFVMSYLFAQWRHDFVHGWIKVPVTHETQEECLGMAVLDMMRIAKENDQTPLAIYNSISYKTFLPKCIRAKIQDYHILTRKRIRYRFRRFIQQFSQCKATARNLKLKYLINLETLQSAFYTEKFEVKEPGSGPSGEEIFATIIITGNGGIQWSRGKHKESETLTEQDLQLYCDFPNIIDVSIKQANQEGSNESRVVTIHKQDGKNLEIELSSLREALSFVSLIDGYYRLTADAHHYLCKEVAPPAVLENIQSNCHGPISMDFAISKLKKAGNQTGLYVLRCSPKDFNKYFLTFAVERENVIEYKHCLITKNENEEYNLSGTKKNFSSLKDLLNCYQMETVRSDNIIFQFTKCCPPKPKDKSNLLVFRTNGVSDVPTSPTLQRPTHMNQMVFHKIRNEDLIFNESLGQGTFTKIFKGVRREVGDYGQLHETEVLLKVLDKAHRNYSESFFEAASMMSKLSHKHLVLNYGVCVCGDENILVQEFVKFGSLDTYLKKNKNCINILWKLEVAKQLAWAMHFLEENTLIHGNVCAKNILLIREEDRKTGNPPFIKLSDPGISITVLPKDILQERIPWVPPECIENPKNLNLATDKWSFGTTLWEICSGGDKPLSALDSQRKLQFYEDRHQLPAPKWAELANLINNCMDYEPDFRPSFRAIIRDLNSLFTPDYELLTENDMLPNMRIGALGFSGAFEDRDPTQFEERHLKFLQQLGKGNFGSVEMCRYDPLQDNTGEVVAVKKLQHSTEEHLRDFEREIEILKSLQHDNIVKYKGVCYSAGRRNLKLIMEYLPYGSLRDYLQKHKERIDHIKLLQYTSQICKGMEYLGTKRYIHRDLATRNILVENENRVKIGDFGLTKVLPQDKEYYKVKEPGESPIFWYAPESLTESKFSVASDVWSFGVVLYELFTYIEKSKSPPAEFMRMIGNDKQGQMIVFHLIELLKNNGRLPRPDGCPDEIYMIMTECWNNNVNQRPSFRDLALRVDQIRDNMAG

| SMILES | inhibition at 0.041 µM (BTK) [%] | also measured |
| --- | --- | --- |
| C=CC(=O)Nc1cccc(-c2cccc3cnc(Nc4ccc(NC5CCN(C(C)=O)CC5)cc4)nc23)c1 [Example C120, N-(3-(2-((4-((1-acetylpiperidin-4-yl)amino)phenyl)amino)quinazolin-8-yl)phenyl)acrylamide] | > 50 | – |
| C=CC(=O)Nc1cccc(-c2cccc3cnc(Nc4ccc(OC5CN(C(C)=O)C5)cc4)nc23)c1 [Example C122, N-(3-(2-((4-((1-acetylazetidin-3-yl)oxy)phenyl)amino)quinazolin-8-yl)phenyl)acrylamide] | > 50 | – |
| C=CC(=O)Nc1cccc(-c2c(C)ccc3cnc(Nc4ccc(N5CCN(C)CC5)cc4)nc23)c1 [Example C034, N-(3-(7-methyl-2-((4-(4-methylpiperazin-1-yl)phenyl)amino)quinazolin-8-yl)phenyl)acrylamide] | – | inhibition at 1 µM (EGFR (ErbB1) T790M L858R; read-out: % inhibition EGFR L858R/T790M (Compound at 1 μM)): > 50% |
| C=CC(=O)Nc1cccc(-c2nccc3cnc(Nc4ccc(N5CCOCC5)cc4)nc23)c1 [Example C012, N-(3-(2-((4-morpholinophenyl)amino)pyrido[3,4-d]pyrimidin-8-yl)phenyl)acrylamide] | > 50 | inhibition at 0.041 µM (JAK2): < 50% |
| C=CC(=O)Nc1cccc(-c2cccc3cnc(Nc4ccc(O[C@H]5CCOC5)cc4)nc23)c1 [Example C113, (S)-N-(3-(2-((4-((tetrahydrofuran-3-yl)oxy)phenyl)amino)quinazolin-8-yl)phenyl)acrylamide] | > 50 | – |
| C=CC(=O)Nc1cccc(-c2cccc3cnc(Nc4ccc(N5CCN(C)CC5)c(C(N)=O)c4)nc23)c1 [Example C085, 5-((8-(3-acrylamidophenyl)quinazolin-2-yl)amino)-2-(4-methylpiperazin-1-yl)benzamide] | – | inhibition at 0.0137 µM (EGFR (ErbB1) T790M L858R): > 50% |
| C=CC(=O)Nc1cccc(-c2cccc3cnc(Nc4ccc(N5CCN(C)CC5)cc4)nc23)c1Cl [Example C054, N-(2-chloro-3-(2-((4-(4-methylpiperazin-1-yl)phenyl)amino)quinazolin-8-yl)phenyl)acrylamide] | > 50 | inhibition at 0.041 µM (JAK2): > 50% |
| C=CC(=O)Nc1cccc(-c2cccc3cnc(Nc4ccc(OC5CCN(C(C)=O)CC5)cc4)nc23)c1 [Example C125, N-(3-(2-((4-((1-acetylpiperidin-4-yl)oxy)phenyl)amino)quinazolin-8-yl)phenyl)acrylamide] | > 50 | – |
| C=CC(=O)Nc1cccc(-c2cccc3cnc(Nc4ccc(OC5CCN(C)CC5)cc4)nc23)c1 [Example C126, N-(3-(2-((4-((1-methylpiperidin-4-yl)oxy)phenyl)amino)quinazolin-8-yl)phenyl)acrylamide] | > 50 | – |
| C=CC(=O)Nc1cccc(-c2cccc3cnc(Nc4ccc(OCCN5CCC5)cc4)nc23)c1 [Example C109, N-(3-(2-((4-(2-(azetidin-1-yl)ethoxy)phenyl)amino)quinazolin-8-yl)phenyl)acrylamide] | > 50 | – |
| C=CC(=O)Nc1cccc(-c2cccc3cnc(Nc4ccc(O[C@@H]5CCOC5)cc4)nc23)c1 [Example C119, (R)-N-(3-(2-((4-((tetrahydrofuran-3-yl)oxy)phenyl)amino)quinazolin-8-yl)phenyl)acrylamide] | > 50 | – |
| C=CC(=O)Nc1cccc(-c2c(C)ccc3cnc(Nc4ccc(N5CCOCC5)cc4)nc23)c1 [Example C033, N-(3-(7-methyl-2-((4-morpholinophenyl)amino)quinazolin-8-yl)phenyl)acrylamide] | > 50 | inhibition at 0.041 µM (JAK2): < 50% |
| Fc1cccc(-c2cccc3cnc(Nc4ccc(N5CCOCC5)cc4)nc23)c1 [Example C009, 8-(3-fluorophenyl)-N-(4-morpholinophenyl)quinazolin-2-amine] | < 50 | – |
| C=CC(=O)Nc1cccc(-c2cccc3cnc(Nc4ccc(N[C@@H]5CCOC5)cc4)nc23)c1 [Example C115, (R)-N-(3-(2-((4-((tetrahydrofuran-3-yl)amino)phenyl)amino)quinazolin-8-yl)phenyl)acrylamide] | > 50 | – |
| C=CC(=O)Nc1cccc(-c2cccc3cnc(Nc4ccc(OC5CCN(C)CC5F)cc4)nc23)c1 (stereo not drawn) [Example C079, N-(3-(2-((4-((3-fluoro-1-methylpiperidin-4-yl)oxy)phenyl)amino)quinazolin-8-yl)phenyl)acrylamide] | – | inhibition at 0.0137 µM (EGFR (ErbB1) T790M L858R): > 50% |
| C=CC(=O)Nc1cccc(-c2cccc3cnc(Nc4ccc(NC5CCN(C)CC5)cc4)nc23)c1 [Example C118, N-(3-(2-((4-((1-methylpiperidin-4-yl)amino)phenyl)amino)quinazolin-8-yl)phenyl)acrylamide] | > 50 | – |
| C=CC(=O)Nc1cccc(-c2cccc3cnc(Nc4ccc(OCCN(C)C)cc4)nc23)c1 [Example C110, N-(3-(2-((4-(2-(dimethylamino)ethoxy)phenyl)amino)quinazolin-8-yl)phenyl)acrylamide] | > 50 | – |
| C=CC(=O)Nc1cccc(-c2cccc3cnc(Nc4ccc(NC5CCN(C)CC5F)cc4)nc23)c1 (stereo not drawn) [Example C105, N-(3-(2-((4-((3-fluoro-1-methylpiperidin-4-yl)amino)phenyl)amino)quinazolin-8-yl)phenyl)acrylamide] | – | inhibition at 0.0137 µM (EGFR (ErbB1) T790M L858R): > 50% |
| C=CC(=O)Nc1cccc(-c2cccc3cnc(Nc4ccc(O[C@@H]5CCN(C)C5)cc4)nc23)c1 [Example C123, (R)-N-(3-(2-((4-((1-methylpyrrolidin-3-yl)oxy)phenyl)amino)quinazolin-8-yl)phenyl)acrylamide] | > 50 | – |
| C=CC(=O)Nc1cccc(-c2cccc3cnc(Nc4ccc(N5CCNC(=O)C5)cc4)nc23)c1 [Example C117, N-(3-(2-((4-(3-oxopiperazin-1-yl)phenyl)amino)quinazolin-8-yl)phenyl)acrylamide] | > 50 | – |
| C=CC(=O)Nc1cccc(-c2cccc3cnc(Nc4ccc(N5CCN(C)CC5)nc4)nc23)c1 [Example C041, N-(3-(2-((6-(4-methylpiperazin-1-yl)pyridin-3-yl)amino)quinazolin-8-yl)phenyl)acrylamide] | – | inhibition at 0.0137 µM (EGFR (ErbB1) T790M L858R): > 50% |
| C=CC(=O)Nc1cccc(-c2cccc3cnc(Nc4ccc(O[C@H]5CCN(C)C5)cc4)nc23)c1 [Example C121, (S)-N-(3-(2-((4-((1-methylpyrrolidin-3-yl)oxy)phenyl)amino)quinazolin-8-yl)phenyl)acrylamide] | > 50 | – |
| Clc1ccccc1-c1cccc2cnc(Nc3ccc(N4CCNCC4)cc3)nc12 [Example C026, 8-(2-chlorophenyl)-N-(4-(piperazin-1-yl)phenyl)quinazolin-2-amine] | < 50 | – |
| C=CC(=O)Nc1cccc(-c2cccc3cnc(Nc4ccc(NC5CN(C(C)=O)C5)cc4)nc23)c1 [Example C124, N-(3-(2-((4-((1-acetylazetidin-3-yl)amino)phenyl)amino)quinazolin-8-yl)phenyl)acrylamide] | > 50 | – |

From patent US11304957B2, “Substituted quinazolines for inhibiting kinase activity” (NeuPharma, Inc., priority 2013, dated 2022)
